Data on twelve compounds can be found in patent US20200017752A1, “Use Of A Composition Containing At Least One Biodegradable Sugar-Amide-Compound In Combination With At Least One Sulfur-Based Synergist For Corrosion Inhibition Of A Metallic Equipment In Oilfield Applications” (Clariant International Ltd., priority 2016, published 2020).

SMILES strings stand for the structures.

Series [1] is described as follows: OECD 306 biodegradation.
A short description of series [2]: Corrosion test, rotating cylinder electrode (RCE), LPR. The settings on record: 150° F., 2000 RPM, synthetic brine, 100% CO2, 12 ppm total inhibitor, vs 2 hr baseline. From the text: In order to evaluate the corrosion inhibition efficacy of the formulations, two different test methods were employed: rotating cylinder electrode (RCE) tests and high pressure, high temperature (HPHT) autoclave weight loss tests. For all testing, the following standard brine composition was used (as outlined in table 3):
A gas composition of 100% CO2 was used throughout testing.
The metallurgy of the coupons tested was C1018 carbon steel for RCE testing and HPHT autoclave testing. Coupons were polished mechanically using 320 grit silicon-carbide (SiC) paper, 400 grit SiC paper, then 600 grit SIC paper and rinsed with water then acetone prior to testing.
The rotating cylinder electrode (RCE) tests were conducted in Pyrex™ glass reaction kettles that were heated to 150° F. The testing solution was comprised of 900 mL of brine. The electrode rotation rate was set at 2000 RPM, which generated a wall shear stress of 7.0 Pa. Linear polarization resistance (LPR) measurements were made with a Gamry electrochemical measurement system. The working electrode was made of a 1018 carbon steel (CS) cylinder with a surface area of 3.16 cm^2. A Hastelloy C276 electrode was used as a pseudo-reference, and a titanium rod was used as the counter electrode. […] The baseline corrosion rate corresponds to the blank corrosion value. Upon completion of the tests, the electrodes were cleaned in an inhibited acid bath according to ASTM G1 C.3.5, and weighed to 0.1 mg.

For series [3], the system named is Algae. Kind of series: Aquatic toxicity testing, 72 hr Algae EC50. It is filed as cell-based. Here is the method: (§1) Firstly the environmental data were determined according to OECD 306 biodegradability and aquatic toxicity testing on the glucamides and the result is outlined in Tables 1 and 2.
A short description of series [4]: Marine BODIS biodegradation. On the procedure:
as §1

`OCCS` [MET, Mercaptoethanol]: in series [1], the “OECD 306 biodegradation Day 7” value is 5%, the “OECD 306 biodegradation Day 14” value is 6%, the “OECD 306 biodegradation Day 21” value came to 8% and the “OECD 306 biodegradation Day 28” value worked out at 17%. Besides, in series [2], the “Protection 2 hr after Cl dose” value is recorded as 74.4% and the “Protection Final 3 hr” value is on record as 91.4%.

Take `CCCCCCCC/C=C\CCCCCCCC(=O)N(C)CC1OC(CO)C(O)C1O` (centres unmarked) [Glucamide #6]: in series [2], the “Protection 2 hr after Cl dose” value turned out to be 76.7% and the “Protection Final 3 hr” value was found to be 94.2%.

`N.O=C(O)CS` [ATG, Ammonium Thioglycolate]: in series [1], the “OECD 306 biodegradation Day 7” value is listed as 9%, the “OECD 306 biodegradation Day 14” value is given as 20%, the “OECD 306 biodegradation Day 21” value came to 33% and the “OECD 306 biodegradation Day 28” value amounted to 39%. In series [2], the “Protection 2 hr after Cl dose” value was 71.8% and the “Protection Final 3 hr” value was found to be 91.4%.

On to `CC(C)CCC(C)CCC(C)CC(=O)N(C)CC1OC(CO)C(O)C1O` (centres unmarked) [Glucamide #4], for which, in series [2], the “Protection 2 hr after Cl dose” value is recorded as 76.0% and the “Protection Final 3 hr” value is given as 94.3%.

`CCCCCCCCCC(=O)N(C)CC(O)C(O)C(O)C(O)CO` (centres unmarked) [Glucamide #1]: in series [1], the “OECD 306 biodegradation Day 7” value was determined as 15%, the “OECD 306 biodegradation Day 14” value was 25%, the “OECD 306 biodegradation Day 21” value came to 33% and the “OECD 306 biodegradation Day 28” value was 31%. Further, in series [3], the “72 hr Algae EC50, Definitive result” value came out at 165.24 µg/mL and the “72 hr Algae EC50, Range-finding result” value is 335.40 µg/mL. Besides, in series [2], the “Protection 2 hr after Cl dose” value is 72.1% and the “Protection Final 3 hr” value is given as 92.7%.

`N.N.O=S(O)(O)=S` [ATS, Ammoniumthiosulfate]: in series [2], the “Protection 2 hr after Cl dose” value was determined as 75.6% and the “Protection Final 3 hr” value came out at 91.2%.

For the compound `NC(N)=S` [TU, Thiourea], in series [1], the “OECD 306 biodegradation Day 7” value is 19%, the “OECD 306 biodegradation Day 14” value came to 32%, the “OECD 306 biodegradation Day 21” value is on record as 20% and the “OECD 306 biodegradation Day 28” value was 55%.

Take `CCCCCCCCCC(=O)N(C)CC1OC(CO)C(O)C1O` (centres unmarked) [Glucamide #3]: in series [2], the “Protection 2 hr after Cl dose” value turned out to be 73.4% and the “Protection Final 3 hr” value is 93.5%.

Consider `CCCCCCCC/C=C\CCCCCCCCN[C@@H](CCSC)C(=O)O` [OMet, N-Oleyl-Methionine], for which, in series [1], the “OECD 306 biodegradation Day 7” value was determined as 60%, the “OECD 306 biodegradation Day 14” value is recorded as 60%, the “OECD 306 biodegradation Day 21” value was determined as 60% and the “OECD 306 biodegradation Day 28” value is 60%. Moreover, in series [2], the “Protection 2 hr after Cl dose” value turned out to be 77.6% and the “Protection Final 3 hr” value worked out at 92.7%.

`O=C([O-])c1ccccc1.[Na+]` [Reference, sodium benzoate, reference compound]: in series [1], the “OECD 306 biodegradation Day 7” value is 78%, the “OECD 306 biodegradation Day 14” value stood at 74%, the “OECD 306 biodegradation Day 21” value is 86% and the “OECD 306 biodegradation Day 28” value is listed as 68%. For the same compound, in series [4], the “Marine BODIS biodegradation Day 7” value came to 66%, the “Marine BODIS biodegradation Day 14” value is reported as 77%, the “Marine BODIS biodegradation Day 21” value is reported as 81% and the “Marine BODIS biodegradation Day 28” value was 83%.

As for `CC(C)CCC(C)CCC(C)CC(=O)N(C)CC(O)C(O)C(O)C(O)CO` (centres unmarked) [Glucamide #2], in series [2], the “Protection 2 hr after Cl dose” value is listed as 79.1% and the “Protection Final 3 hr” value was 93.8%.

Consider `CCCCCCCC/C=C\CCCCCCCC(=O)N(C)CC(O)C(O)C(O)C(O)CO` (centres unmarked) [Glucamide #5], for which, in series [3], the “72 hr Algae EC50, Definitive result” value is 4.55 µg/mL and the “72 hr Algae EC50, Range-finding result” value is 6.199 µg/mL. Also, in series [4], the “Marine BODIS biodegradation Day 7” value turned out to be 23%, the “Marine BODIS biodegradation Day 14” value turned out to be 33%, the “Marine BODIS biodegradation Day 21” value was determined as 37% and the “Marine BODIS biodegradation Day 28” value stood at 42%. Besides, in series [2], the “Protection 2 hr after Cl dose” value was 75.7% and the “Protection Final 3 hr” value worked out at 94.0%.
